Measured values reported in US20260258050A1, “IMMUNOMODULATOR” (HITGEN INC., priority 2023, published 2026).

What was measured:
[1] = molecular target: T1, Human IL-17AF (Homo sapiens, UniProt Q16552+Q96PD4); assay: IL-17AF ELISA (competitive ELISA, IL-17AF/IL-17Ra receptor-ligand binding); conditions: human IL-17AF coated plate, human IL-17Ra, read-out: IC50, inhibitory activity of compounds on human IL-17AF
T1 construct: purchased Sino Biological Inc. CT047-H08H
T1 sequence (Q16552 24-155): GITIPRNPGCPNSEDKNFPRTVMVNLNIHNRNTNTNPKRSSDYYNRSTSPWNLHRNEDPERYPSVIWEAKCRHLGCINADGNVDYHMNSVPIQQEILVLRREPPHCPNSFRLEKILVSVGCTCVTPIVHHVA
T1 sequence (Q96PD4 31-163): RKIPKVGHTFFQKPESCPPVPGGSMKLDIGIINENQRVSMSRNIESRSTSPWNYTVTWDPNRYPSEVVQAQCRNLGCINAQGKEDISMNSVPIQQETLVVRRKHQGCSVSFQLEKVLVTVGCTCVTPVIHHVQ
How it was run: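 Plates coated with 0.625 μg/ml human IL-17AF in PBS pH 7.4 (37 °C, 30 min) and milk-blocked. Compounds pre-incubated with coated IL-17AF for 10 min at 25 °C, then IL-17Ra added (as 100 nM solution) for 30 min. Bound receptor detected by anti-Fc HRP/TMB at 450 nm; IC50 from variable-slope normalized fit versus DMSO control and blank.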

[2] = molecular target: T2, Human IL-17A (Homo sapiens, UniProt Q16552); assay: Inhibition of human IL-17A protein-induced GROα/CXCL1 production in HT-29 cells; format: cell-based; parameters: purchased R&D 317-ILB; host or cells: added exogenously to HT-29 cells; conditions: 30 ng/mL human IL-17A protein, 48 h, GROα in supernatant by ELISA kit, read-out: Inhibitory IC50 of compounds on HT-29 cell GROα/CXCL1
T2 sequence (Q16552 20-155 limits assumed): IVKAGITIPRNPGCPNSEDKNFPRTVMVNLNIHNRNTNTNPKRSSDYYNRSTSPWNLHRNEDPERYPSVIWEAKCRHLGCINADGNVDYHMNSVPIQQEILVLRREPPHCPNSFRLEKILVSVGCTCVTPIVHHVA
How it was run: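 Compound dilutions were preincubated 1 h at 37 °C with 30 ng/mL human IL-17A, then added to HT-29 cells (5×10^4/well) for 48 h at 37 °C. GROα in supernatant quantified by ELISA; IC50 for inhibition of its production. Positive control: IL-17A antibody at […].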

IC50 [1]	IC50 [2]	Structure (SMILES)
0.1 to 0.5 µM	≤ 0.1 µM	Cc1[nH]nc2c1-c1cnc(NC(=O)[C@@H](NC(=O)/C(F)=C\C(C)C)C(C3CC3)C3CC3)cc1COCC2 [compound 238]
0.1 to 0.5 µM	≤ 0.1 µM	Cc1[nH]nc2c1-c1cnc(NC(=O)[C@@H](NC(=O)/C(F)=C\C3CC3)C(C3CC3)C3CC3)cc1COCC2 [compound 239]
0.1 to 0.5 µM	0.1 to 0.5 µM	CCc1nocc1C(=O)N[C@H](C(=O)Nc1cc2c(cn1)-c1c(n[nH]c1C)CCOC2)C(C1CC1)C1CC1 [compound 240]
0.1 to 0.5 µM	0.1 to 0.5 µM	Cc1[nH]nc2c1-c1cnc(NC(=O)[C@@H](NC(=O)c3conc3C3CC3)C(C3CC3)C3CC3)cc1COCC2 [compound 241]
